Drawing on DBAASP, this text covers MIC for eleven compounds.

The term MIC denotes the smallest concentration in the dilution series that meets the test's criterion for growth inhibition. Lower therefore signals inhibition by little substance.

≈ marks a conversion by molar mass, not a printed value.

Among the test systems are Micrococcus luteus; Bacillus cereus; Escherichia coli; Staphylococcus aureus; Pasteurella multocida; Leuconostoc lactis; Streptococcus uberis; Listeria innocua; Escherichia coli K-12.
What all share (experiment): ≥ marks a high value that may be exact or a test limit, other limits are often not marked, values filed in µg/mL are converted to µM
In experiment [1] the test system is Escherichia coli NCTC 10418.
Experiment [2] deals with Staphylococcus epidermidis.
The test system of experiment [3] is Salmonella typhimurium KCTC 1926.
Experiment [4] deals with Escherichia coli KCTC 1682.
In experiment [5] the test system is Bacillus subtilis KCTC 3068.
Experiment [6] concerns Pseudomonas aeruginosa KCTC 1637.
The test system of experiment [7] is Staphylococcus epidermidis KCTC 1917.
The subject of experiment [8] is Staphylococcus aureus KCTC 1621.
Experiment [9] concerns Micrococcus luteus ATCC 9341.
Experiment [10] has as its system Staphylococcus aureus USA 300.

Regarding `CC[C@H](C)[C@H](NC(=O)[C@H](CCCCN)NC(=O)[C@H](C)NC(=O)[C@H](C)N)C(=O)N[C@H](C(=O)N[C@@H](CC(C)C)C(=O)N[C@@H](CC(N)=O)C(=O)N1CCC[C@H]1C(=O)N[C@@H](CCCCN)C(=O)N[C@@H](Cc1ccccc1)C(=O)N[C@@H](CCCN=C(N)N)C(=O)N[C@H]1CSSC[C@@H](C(=O)O)NC(=O)[C@H](Cc2ccccc2)NC(=O)[C@H](C)NC(=O)[C@H](C)NC(=O)[C@H](Cc2ccccc2)NC1=O)[C@@H](C)CC` [AAKIILNPKFRCFAAFC], the MIC in experiment [1] was ≥ 160 µM.
`CC[C@H](C)[C@H](NC(=O)[C@H](CC(=O)O)NC(=O)[C@H](Cc1ccccc1)NC(=O)[C@H](CC(C)C)NC(=O)CN)C(=O)N[C@H](C(=O)N[C@@H](CCCCN)C(=O)N[C@@H](CCCCN)C(=O)N[C@H](C(=O)N[C@@H](C)C(=O)N[C@@H](CO)C(=O)N[C@H](C(=O)N[C@H](C(=O)NCC(=O)NCC(=O)N[C@@H](CC(C)C)C(N)=O)[C@@H](C)CC)C(C)C)C(C)C)[C@@H](C)CC` [GLFDIIKKVASVIGGL]: the MIC with Micrococcus luteus was 7.36 µM (≈ 12 µg/mL); in the experiment with Bacillus cereus, 15.3 µM (≈ 25 µg/mL); with Escherichia coli, > 61.4 µM; in experiment [2] it was 15.3 µM (≈ 25 µg/mL); against Staphylococcus aureus, 15.3 µM (≈ 25 µg/mL); with Pasteurella multocida, ≥ 61.4 µM. Further, the MIC against Leuconostoc lactis is 3.68 µM (≈ 6 µg/mL); in the experiment with Streptococcus uberis it was 7.36 µM (≈ 12 µg/mL); against Listeria innocua it was 15.3 µM (≈ 25 µg/mL).
Turning to `CC[C@H](C)[C@H](NC(=O)[C@H](CCCCN)NC(=O)[C@H](CO)NC(=O)[C@H](C)NC(=O)[C@@H](NC(=O)[C@H](CCCCN)NC(=O)[C@H](CCCCN)NC(=O)[C@@H](NC(=O)[C@@H](NC(=O)[C@H](CC(=O)O)NC(=O)[C@H](Cc1ccccc1)NC(=O)[C@H](CC(C)C)NC(=O)CN)C(C)C)[C@@H](C)CC)C(C)C)C(=O)NCC(=O)NCC(=O)N[C@@H](CC(C)C)C(N)=O` [GLFDVIKKVASKIGGL], the MIC was ≥ 60.8 µM with Micrococcus luteus; ≥ 60.8 µM in the experiment with Bacillus cereus; 60.8 µM (≈ 99.9 µg/mL) in the experiment on Escherichia coli; ≥ 60.8 µM in [2]; > 60.8 µM against Staphylococcus aureus; ≥ 60.8 µM in the experiment with Pasteurella multocida. Also, the MIC against Leuconostoc lactis was 7.29 µM (≈ 12 µg/mL); against Streptococcus uberis it was ≥ 60.8 µM; with Listeria innocua, 30.4 µM (≈ 50 µg/mL).
As for `CC[C@H](C)[C@H](NC(=O)[C@@H](NC(=O)[C@H](CO)NC(=O)[C@H](C)NC(=O)[C@@H](NC(=O)[C@H](CCCCN)NC(=O)[C@H](CCCCN)NC(=O)[C@@H](NC(=O)[C@@H](NC(=O)[C@H](CC(=O)O)NC(=O)[C@H](Cc1ccccc1)NC(=O)[C@H](CC(C)C)NC(=O)CN)C(C)C)[C@@H](C)CC)C(C)C)C(C)C)C(=O)NCC(=O)NCC(=O)N[C@@H](C)C(N)=O` [GLFDVIKKVASVIGGA], the MIC with Micrococcus luteus was ≥ 63.5 µM; in the experiment with Bacillus cereus, ≥ 63.5 µM; in the experiment with Escherichia coli, > 63.5 µM; in [2] it was ≥ 63.5 µM; against Staphylococcus aureus it was > 63.5 µM; in the experiment with Pasteurella multocida, ≥ 63.5 µM. Further, the MIC in the experiment on Leuconostoc lactis was 15.9 µM (≈ 25 µg/mL); against Streptococcus uberis, ≥ 63.5 µM; against Listeria innocua, ≥ 63.5 µM.
`CC[C@H](C)[C@H](NC(=O)[C@@H](NC(=O)[C@H](CO)NC(=O)[C@H](C)NC(=O)[C@@H](NC(=O)[C@H](CCCCN)NC(=O)[C@H](CCCCN)NC(=O)[C@@H](NC(=O)[C@@H](NC(=O)[C@H](CC(=O)O)NC(=O)[C@H](Cc1ccccc1)NC(=O)[C@H](CC(C)C)NC(=O)CN)C(C)C)[C@@H](C)CC)C(C)C)C(C)C)C(=O)NCC(=O)N[C@@H](CC(C)C)C(=O)N[C@@H](C)C(=O)N[C@@H](CO)C(=O)N1CCC[C@H]1C(=O)O` [GLFDVIKKVASVIGLASP]: the MIC against Micrococcus luteus was ≥ 55.1 µM; in the experiment on Bacillus cereus, ≥ 55.1 µM; in the experiment on Escherichia coli it was > 55.1 µM; in experiment [2] it was ≥ 55.1 µM; with Staphylococcus aureus, > 55.1 µM; with Pasteurella multocida it was ≥ 55.1 µM. In addition, the figures for the minimum inhibitory concentration (MIC) against Leuconostoc lactis, against Streptococcus uberis and with Listeria innocua were 27.6 µM (≈ 50 µg/mL), ≥ 55.1 µM and ≥ 55.1 µM, respectively.
As for `CC[C@H](C)[C@H](N)C(=O)NCC(=O)N[C@@H](CCCCN)C(=O)N[C@@H](CCCCN)C(=O)N[C@@H](Cc1ccccc1)C(=O)N[C@@H](CCCCN)C(=O)N[C@@H](CCCN=C(N)N)C(=O)N[C@H](C(=O)N[C@H](C(=O)N[C@@H](CCC(N)=O)C(=O)N[C@@H](CCCN=C(N)N)C(=O)N[C@H](C(=O)N[C@@H](CCCCN)C(=O)N[C@@H](CCCCN)C(=O)N[C@@H](Cc1ccccc1)C(=O)N[C@@H](CC(C)C)C(=O)N[C@@H](CCCN=C(N)N)C(=O)N[C@@H](CCCCN)C(=O)N[C@@H](CC(C)C)C(=O)O)[C@@H](C)CC)C(C)C)[C@@H](C)CC` [IGKKFKRIVQRIKKFLRKL], the MIC in experiment [3] was found to be 4 µM (≈ 9.6 µg/mL); in [4] it was 8 µM (≈ 19.2 µg/mL); in experiment [5], 2 µM (≈ 4.8 µg/mL); in experiment [6], 8 µM (≈ 19.2 µg/mL); in [7], 2 µM (≈ 4.8 µg/mL); in [8], 4 µM (≈ 9.6 µg/mL).
`CC[C@H](C)[C@H](N)C(=O)N[C@@H](CC(C)C)C(=O)N1CCC[C@H]1C(=O)N[C@@H](Cc1c[nH]c2ccccc12)C(=O)N[C@@H](CCCCN)C(=O)N[C@@H](Cc1c[nH]c2ccccc12)C(=O)N1CCC[C@H]1C(=O)N[C@@H](Cc1c[nH]c2ccccc12)C(=O)N[C@@H](Cc1c[nH]c2ccccc12)C(N)=O` [ILPWKWPWW] returned an MIC in [9] of 1.6 µM (≈ 2.1 µg/mL).
`CC[C@H](C)[C@H](NC(=O)[C@@H](N)CCCCN)C(=O)N[C@@H](CCCCN)C(=O)N[C@@H](CC(C)C)C(=O)N[C@@H](Cc1ccccc1)C(=O)N[C@@H](CCCCN)C(=O)N[C@@H](CCCCN)C(=O)N[C@@H](Cc1c[nH]c2ccccc12)C(=O)N1CCC[C@H]1C(=O)N[C@@H](CCCCN)C(=O)N[C@@H](Cc1ccccc1)C(=O)N[C@@H](CC(C)C)C(=O)N[C@@H](Cc1cnc[nH]1)C(=O)N[C@@H](CC(C)C)C(=O)N[C@@H](C)C(=O)N[C@@H](CCCCN)C(=O)N[C@@H](CCCCN)C(=O)N[C@@H](Cc1ccccc1)C(N)=O` [KIKLFKKWPKFLHLAKKF]: the MIC in experiment [3] was determined as 2 µM (≈ 4.6 µg/mL); in experiment [4] it was 2 µM (≈ 4.6 µg/mL); in experiment [5], 1 µM (≈ 2.3 µg/mL); in experiment [6], 2 µM (≈ 4.6 µg/mL); in experiment [7], 1 µM (≈ 2.3 µg/mL); in experiment [8], 2 µM (≈ 4.6 µg/mL).
In the case of `CC[C@H](C)[C@H](NC(=O)[C@H](CCCCN)NC(=O)[C@H](CCC(N)=O)NC(=O)[C@@H](NC(=O)[C@@H](NC(=O)[C@H](CCCCN)NC(=O)[C@@H](N)CCCCN)[C@@H](C)CC)C(C)C)C(=O)N[C@@H](CCCCN)C(=O)N[C@@H](CC(=O)O)C(=O)N[C@@H](Cc1ccccc1)C(=O)N[C@@H](CC(C)C)C(=O)N[C@@H](CCCCN)C(N)=O` [KKIVQKIKDFLK], in the experiment on Escherichia coli K-12, the MIC was ≥ 106 µM.
Turning to `CC[C@H](C)[C@H](NC(=O)[C@H](CC(C)C)NC(=O)CNC(=O)[C@H](CO)NC(=O)[C@@H](NC(=O)[C@H](CC(C)C)NC(=O)[C@@H](N)CC(N)=O)C(C)C)C(=O)N[C@@H](CCC(=O)O)C(=O)N[C@@H](C)C(=O)N[C@@H](CCCNC(=N)N)C(=O)N[C@@H](CCCCN)C(=O)N[C@@H](Cc1ccc(O)cc1)C(=O)N[C@@H](CC(C)C)C(=O)N[C@@H](CCC(=O)O)C(=O)N[C@@H](CCC(N)=O)C(=O)N[C@@H](CC(C)C)C(=O)N[C@@H](Cc1cnc[nH]1)C(=O)N[C@@H](CCCNC(=N)N)C(=O)N[C@@H](CCCCN)C(=O)N[C@@H](CC(C)C)C(=O)N[C@@H](CCCCN)C(=O)N[C@@H](CC(N)=O)C(=O)N[C@@H](CCCNC(=N)N)C(=O)N[C@@H](CCCCN)C(=O)N[C@H](C(=O)O)C(C)C` [NLVSGLIEARKYLEQLHRKLKNRKV], the MIC (against Escherichia coli K-12; in experiment [10]) was ≥ 92 µM in each case.
In turn, `CC[C@H](C)[C@H](NC(=O)[C@H](CC(C)C)NC(=O)[C@@H]1CCCN1C(=O)[C@H](Cc1ccccc1)NC(=O)[C@H](CCCCN)NC(=O)[C@H](Cc1ccccc1)NC(=O)[C@@H]1CCCN1C(=O)[C@H](Cc1ccccc1)NC(=O)[C@H](Cc1ccccc1)NC(=O)[C@@H]1CCCN1C(=O)[C@H](Cc1ccccc1)NC(=O)[C@H](CCCN=C(N)N)NC(=O)[C@@H](N)CCCN=C(N)N)C(N)=O` [RRFPFFPFKFPLI] displayed an MIC in experiment [9] of 0.4 µM (≈ 0.684 µg/mL).
